# Literature values as cited in patent US7060710B2, “Isoxazole pyrazoloindane derivatives as cognition enhancing GABAA α5 subtype ligands” (Merck Sharp & Dohme Ltd., priority 2001, dated 2006).
# What was measured:
# [1] = reported by McNamara and Skelton
# [2] = background statement
structure (smiles),measurement,setting,value
COC(=O)c1cc2c(cn1)[nH]c1ccccc12 [β-CCM],spatial learning in the Morris watermaze,[1],enhanced spatial learning
same,proconvulsant activity,[2],proconvulsant
